The values that follow come from paper PMC5897336, “Phosphatase activity tunes two-component system sensor detection threshold” (Nature Communications, 2018).

In the experiment the test system is ThsS. To be noted: read-out: K1/2; whole E. coli cells, M9 glycerol, 37 °C, agonist, added as Na2S2O3, 200 μM IPTG, 20 ng/mL aTc; wild type taken as the upper end of the printed range.

With `O=S(=O)(O)S` [thiosulfate], the EC50 amounted to 192 µM.
